US20260272881A1, “QTX125 DRUG FORMULATIONS” (Quimatryx, S.L., priority 2022, published 2026)
Converted amounts (≈) assume the structure as drawn.

Assays:
[1] = system: rats, mice and dogs; conditions: range of animal species including rats; cited from earlier work
[2] = Solubility trials of QTX125 formulations (mixed 24 hours at room temperature); format: physicochemical; conditions: aqueous HPβCD solution (HPβCD as only excipient), aqueous with cosolvent or surfactant or cyclodextrin, thermodynamic from solid; with HPβCD alone (Example 1.3)
Method: The parameters required for the HPLC method used to determine the concentration of QTX125 in solution is set out below.
HPLC determination of the percentage of QTX125 in the solutions below was determined using the protocols set out above.
Assay (% LC) was determined by comparing the area of the peak for QTX125 to a calibration curve determined by running samples of known concentration of QTX125 (standards) on the HPLC.

[3] = Genotoxicity (clastogenicity, aneugenicity)
[4] = Pharmacokinetic properties (half-lives, distribution volumes); format: in vivo; conditions: compared with other histone deacetylase inhibitors
[5] = Solubility in water and stability in solution of QTX125 (background); format: physicochemical
[6] = target: T1, HDAC 6 (Homo sapiens, UniProt Q9UBN7); conditions: cited from earlier work
T1 sequence (Q9UBN7 1-1215): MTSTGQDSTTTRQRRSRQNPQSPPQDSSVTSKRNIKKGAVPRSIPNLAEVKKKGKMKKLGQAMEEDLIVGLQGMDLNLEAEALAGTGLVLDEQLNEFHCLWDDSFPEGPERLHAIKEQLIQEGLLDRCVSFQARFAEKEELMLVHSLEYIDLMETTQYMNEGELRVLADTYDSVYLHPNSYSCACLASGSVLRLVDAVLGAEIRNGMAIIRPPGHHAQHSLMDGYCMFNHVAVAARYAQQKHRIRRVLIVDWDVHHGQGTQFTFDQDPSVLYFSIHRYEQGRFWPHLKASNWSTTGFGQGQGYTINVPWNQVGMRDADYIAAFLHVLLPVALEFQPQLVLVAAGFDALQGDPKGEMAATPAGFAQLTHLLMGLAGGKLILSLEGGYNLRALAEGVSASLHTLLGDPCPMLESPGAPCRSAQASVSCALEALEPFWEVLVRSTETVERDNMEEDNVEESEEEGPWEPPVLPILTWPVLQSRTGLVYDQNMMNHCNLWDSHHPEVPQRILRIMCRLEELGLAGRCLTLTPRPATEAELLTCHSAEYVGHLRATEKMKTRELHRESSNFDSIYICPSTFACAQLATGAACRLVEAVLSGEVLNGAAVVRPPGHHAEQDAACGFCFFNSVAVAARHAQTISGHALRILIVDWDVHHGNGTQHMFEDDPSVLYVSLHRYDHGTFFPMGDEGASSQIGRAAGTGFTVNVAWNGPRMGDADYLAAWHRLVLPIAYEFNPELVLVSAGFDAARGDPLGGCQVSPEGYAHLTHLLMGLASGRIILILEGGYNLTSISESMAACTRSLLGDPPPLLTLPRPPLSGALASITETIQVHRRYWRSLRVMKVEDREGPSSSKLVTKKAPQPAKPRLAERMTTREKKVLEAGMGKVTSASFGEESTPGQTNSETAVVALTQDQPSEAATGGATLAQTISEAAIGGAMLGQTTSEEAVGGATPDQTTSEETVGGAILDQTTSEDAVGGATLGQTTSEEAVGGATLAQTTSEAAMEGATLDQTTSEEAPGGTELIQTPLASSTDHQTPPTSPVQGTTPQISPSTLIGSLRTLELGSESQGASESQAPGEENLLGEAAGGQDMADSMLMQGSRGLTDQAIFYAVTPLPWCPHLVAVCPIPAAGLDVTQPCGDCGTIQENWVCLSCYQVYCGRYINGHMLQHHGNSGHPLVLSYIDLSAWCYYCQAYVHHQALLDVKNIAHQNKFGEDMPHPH

[7] = system: mantle cell lymphoma; conditions: mantle cell lymphoma xenograft murine model; cited from earlier work
[8] = system: lung cancer; conditions: lung cancer xenograft murine model; cited from earlier work
[9] = system: pancreatic cancer; conditions: pancreatic cancer xenograft murine model; cited from earlier work
[10] = system: multiple sclerosis mice models; conditions: two different multiple sclerosis mice models; cited from earlier work
[11] = hydroxamic acids such as QTX125; cited from earlier work
[12] = acute toxicity studies; cited from earlier work
[13] = system: mice; conditions: cited from earlier work

2-hydroxypropyl-β-cyclodextrin
tolerance [1]: well tolerated

O=C(NO)c1ccc(CNC(=O)c2[nH]c(-c3ccc(O)cc3)cc2-c2ccoc2)cc1 [QTX125, 3-(3-Furyl)-N-{4-[(hydroxyamino)carbonyl]benzyl}-5-(4-hydroxyphenyl)-1 Hpyrrole-2-carboxamide]
solubility at 24 h [2]: 140 µg/mL (≈ 335 µM)
genotoxicity, in particular clastogenicity or aneugenicity [3]: no evidence of genotoxicity
pharmacokinetic properties (half-lives and distribution volumes) [4]: higher half-lives and distribution volumes
stability in solution [5]: physical and chemical instability in solution
HDAC 6 inhibition [6]: highly selective and highly potent
antitumoral efficacy [7]: high antitumoral efficacy
antitumoral efficacy [8]: high antitumoral efficacy
antitumoral efficacy [9]: high antitumoral efficacy
efficacy [10]: high efficacy
solubility in water [11]: very low solubility in water

sulfobutyl ether β cyclodextrin [SBβCD]
acute toxicity [12]: no observable effects
renal histopathology [13]: no negative renal histopathology
